Measured values reported in patent publication EP2405274A1, “Monitoring anticoagulant therapy and identifying reversible direct factor Xa inhibitors” (Good biomarker Sciences B.V., priority 2010, dated 2012).

What was measured:
Format in all cases: biochemical
[1] = tested on: pooled human citrated plasma; assay: Prothrombin time (PT) clotting assay with Innovin
Protocol: (§1) The experiments here below were performed with pooled human citrated plasma which was made from a minimum of individual contributions of 6 apparently healthy volunteers. Blood was collected ( 9 vol blood/ 1 volume 0.11 M citrate) in tubes and mixed directly after withdrawal. The Blood was cooled by submersion in ice water and centrifuged in a cooled, swing-out centrifuge for at least 20 minutes at 2000 x g. Subsequently, plasma was carefully separated from the cells and collected in an intermediate , cooled plastic tube. The collected plasma was mixed and centrifuged similarly after which platelet-poor-plasma was collected, aliquoted and after snap-freezing stored at -60 °C or below.
(§2) Different PT assays were used using PT assays commercially available as Simplastin excel S (BioMerieux), Innovin (Dade Behring), Neoplastin CI plus (Stago), Recombiplastin (Instrumentation Laboratories) and Thromborel S (Dade Behring). In each case The reagent consisted of Tissue factor, lipid and CaCl2. Tests were performed in a clotting analyser (AMAX Destiny, Kordia Lifesciences, Leiden, NL). In each case a cuvette was filled with 100 µl plasma and incubated for 1 minute at 37 °C. Pre-warmed PT reagent was added (200 µl) and recording of clotting was started. The AMAX recorded blood clotting by reduction in speed of a turning rod (mechanical detection).
(§3) For spiking experiments with rivaroxaban (Xarelto, from Bayer), the plasma sample was spiked with rivaroxaban at different concentrations between […], and the clotting times were again recorded using the different PT reagents. The results are plotted in Figure 1.

[2] = tested on: pooled human citrated plasma; assay: Prothrombin time (PT) clotting assay with Thromboplastin S
Protocol: as §1
(§4) Different PT assays were used using PT assays commercially available as Simplastin excel S (BioMerieux), Innovin (Dade Behring), Neoplastin CI plus (Stago), Recombiplastin (Instrumentation Laboratories) and Thromborel S (Dade Behring). In each case The reagent consisted of Tissue factor, lipid and CaCl2. […] The AMAX recorded blood clotting by reduction in speed of a turning rod (mechanical detection).
(§5) For spiking experiments with rivaroxaban (Xarelto, from Bayer), the plasma sample was spiked with rivaroxaban at different concentrations between […], and the clotting times were again recorded using the different PT reagents. […]

[3] = tested on: pooled human citrated plasma; assay: Prothrombin time (PT) clotting assay with Simplastin Excel
Protocol: as §1, §2, §3
(§6) Example 1a was repeated with PT clotting assays Thromboplastin S (Biopool, through Trinity),PT fibrinogen (Instrumentation Laboratories), PT fibrinogen recombinant (Instrumentation Laboratories), Thromboplastin C plus ( Siemens) and Simplastin Excel (Biomerieux).

[4] = tested on: pooled human citrated plasma; assay: Prothrombin time (PT) clotting assay with Recombiplastin
Protocol: as §1, §2, §3

[5] = tested on: pooled human citrated plasma; assay: Prothrombin time (PT) clotting assay with Thromboplastin C plus
Protocol: as §1, §2, §3, §6

[6] = tested on: pooled human citrated plasma; assay: Prothrombin time (PT) clotting assay with Thromborel S
Protocol: as §1, §2, §3

[7] = tested on: pooled human citrated plasma; assay: Prothrombin time (PT) clotting assay with Simplastin excel S; design: Rivaroxaban-prolonged PT / Ratio range: dose or concentration left out as unconfirmed
Protocol: as §1, §2, §3

[8] = tested on: pooled human citrated plasma; assay: Prothrombin time (PT) clotting assay with PT fibrinogen recombinant
Protocol: as §1, §2, §3, §6

[9] = tested on: pooled human citrated plasma; assay: PT clotting assay with Innovin in presence of RVV-V; details: Figure 2
Protocol: as §1
as §4, with “detection). […]” for “detection).”
as §5

[10] = tested on: pooled human citrated plasma; assay: PT clotting assay with Simplastin Excel S in presence of RVV-V; details: RVV-V added prior to the clotting experiment, Figure 2
Protocol: as §1
as §4, with “detection). […]” for “detection).”
as §5

[11] = tested on: pooled human citrated plasma; assay: Prothrombin time (PT) clotting assay with PT fibrinogen
Protocol: as §1, §2, §3, §6

[12] = tested on: pooled human citrated plasma; assay: Prothrombin time (PT) clotting assay with Neoplastin CI plus
Protocol: as §1, §2, §3

[13] = 200 ng/ml rivaroxaban spiked in plasma
[14] = 600 ng/ml rivaroxaban spiked in plasma
[15] = PT ratio compared to reference value ("0"), up to 600 ng/ml rivaroxaban

## O=C(NC[C@H]1CN(c2ccc(N3CCOCC3=O)cc2)C(=O)O1)c1ccc(Cl)s1 [rivaroxaban, Rivaroxaban]
[1]; [13]
  Prothrombin time: 12.0 s
[1]; [14]
  Prothrombin time: 17.1 s
[1]; [15]
  Ratio range: 1.0- 1.8
[1]; without RVV-V, Figure 2
  Change in PT for rivaroxaban: no significant change in PT
[2]; [14]
  Prothrombin time: 51.6 s
[2]; [15]
  Ratio range: 1.0-2.4
[3]; [13]
  Prothrombin time: 40.0 s
[3]; [14]
  Prothrombin time: 63.1 s
[3]; [15]
  Ratio range: 1.0-3.1
[4]; [13]
  Prothrombin time: 16.8 s
[4]; [14]
  Prothrombin time: 26.2 s
[4]; [15]
  Ratio range: 1.0-2.5
[5]; [13]
  Prothrombin time: 44.3 s
[5]; [14]
  Prothrombin time: 73.5 s
[5]; [15]
  Ratio range: 1.0-3.1
[6]; [13]
  Prothrombin time: 21.1 s
[6]; [14]
  Prothrombin time: 26.7 s
[6]; [15]
  Ratio range: 1.0-1.7
[7]; Simplastin Excel S and/or Triniclot Excel S, within the therapeutic range (ratio window 2 - 5)
  Sensitivity of PT assay for rivaroxaban: high sensitivity
[7]; Simplastin Excel S, without RVV-V, 200 -
  Rivaroxaban-prolonged PT: 80 s
[7]; Simplastin excel S, 200 µg/ml rivaroxaban spiked in plasma
  Prothrombin time: 41.0 s
[7]; Simplastin excel S, PT ratio compared to reference value ("0"), up
  Ratio range: 1.0-5.0
[7]; Simplastin excel S, spiked in plasma
  Prothrombin time: 80.8 s
[8]; [13]
  Prothrombin time: 32.9 s
[8]; [14]
  Prothrombin time: 45.4 s
[8]; [15]
  Ratio range: 1.0-1.9
[9]
  Change in PT for rivaroxaban: no significant change in PT
[10]
  Effect of RVV-V on prolonged PT: completely vanished
[11]; [13]
  Prothrombin time: 38.5 s
[11]; [14]
  Prothrombin time: 62.7 s
[11]; [15]
  Ratio range: 1.0-2.8
[12]; [13]
  Prothrombin time: 20.0 s
[12]; [14]
  Prothrombin time: 35.0 s
[12]; [15]
  Ratio range: 1.0-2.6
